According to the supplement of paper PMC10307832:

Legend:
Assay in all cases: relative viability (nuclei count vs DMSO), 5 days (fraction); higher = more cells survive
TGX 221 + Lapatinib = compound: CC1=CN2C(=O)C=C(N=C2C(=C1)C(C)NC3=CC=CC=C3)N4CCOCC4 [TGX 221] + CS(=O)(=O)CCNCc1ccc(-c2ccc3ncnc(Nc4ccc(OCc5cccc(F)c5)c(Cl)c4)c3c2)o1 [Lapatinib] (partner 2 µM)
Method in brief: (§1)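 Relative viability equals treated-well nuclei counts divided by vehicle-well nuclei counts. Counts came from 4× images of lung cancer cell lines grown in 1536-well plates for 5 days after pin-tool dosing on the day after seeding. Dosing used one drug alone or a fixed anchor-drug dose plus five library-drug doses (not always all listed) in √10 steps, and values are medians of duplicate plates.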

Ricolinostat + Dasatinib = compound: O=C(CCCCCCNC(=O)c1cnc(N(c2ccccc2)c2ccccc2)nc1)NO [Ricolinostat] + Cc1nc(Nc2ncc(C(=O)Nc3c(C)cccc3Cl)s2)cc(N2CCN(CCO)CC2)n1 [Dasatinib] (partner 0.075 µM)
Method in brief: as §1

TGX 221 + Crizotinib = compound: CC1=CN2C(=O)C=C(N=C2C(=C1)C(C)NC3=CC=CC=C3)N4CCOCC4 [TGX 221] + C[C@@H](Oc1cc(-c2cnn(C3CCNCC3)c2)cnc1N)c1c(Cl)ccc(F)c1Cl [Crizotinib] (partner 1 µM)
Method in brief: as §1

## 201T
TGX 221 + Lapatinib; first compound 0.253 µM
  relative viability: 1.05
TGX 221 + Lapatinib; first compound 0.8 µM
  relative viability: 0.98
TGX 221 + Lapatinib; first compound 2.53 µM
  relative viability: 1.02
TGX 221 + Lapatinib; first compound 8 µM
  relative viability: 0.943
Ricolinostat + Dasatinib; first compound 0.08 µM
  relative viability: 0.471
Ricolinostat + Dasatinib; first compound 0.253 µM
  relative viability: 0.571
Ricolinostat + Dasatinib; first compound 0.8 µM
  relative viability: 0.603
Ricolinostat + Dasatinib; first compound 2.53 µM
  relative viability: 0.498
TGX 221 + Crizotinib; first compound 0.253 µM
  relative viability: 1.07
TGX 221 + Crizotinib; first compound 0.8 µM
  relative viability: 1.01
TGX 221 + Crizotinib; first compound 2.53 µM
  relative viability: 0.993
TGX 221 + Crizotinib; first compound 8 µM
  relative viability: 0.985

## A549
TGX 221 + Lapatinib; first compound 0.08 µM
  relative viability: 0.939
TGX 221 + Lapatinib; first compound 0.253 µM
  relative viability: 0.914
TGX 221 + Lapatinib; first compound 0.8 µM
  relative viability: 0.966
TGX 221 + Lapatinib; first compound 2.53 µM
  relative viability: 1.04
TGX 221 + Lapatinib; first compound 8 µM
  relative viability: 0.748
TGX 221 + Crizotinib; first compound 0.08 µM
  relative viability: 0.677
TGX 221 + Crizotinib; first compound 0.253 µM
  relative viability: 0.743
TGX 221 + Crizotinib; first compound 0.8 µM
  relative viability: 0.773
TGX 221 + Crizotinib; first compound 2.53 µM
  relative viability: 0.751
TGX 221 + Crizotinib; first compound 8 µM
  relative viability: 0.529

## A-427
TGX 221 + Lapatinib; first compound 0.08 µM
  relative viability: 0.998
TGX 221 + Lapatinib; first compound 0.253 µM
  relative viability: 0.992
TGX 221 + Lapatinib; first compound 0.8 µM
  relative viability: 1.01
TGX 221 + Lapatinib; first compound 2.53 µM
  relative viability: 0.991
TGX 221 + Lapatinib; first compound 8 µM
  relative viability: 1.05
Ricolinostat + Dasatinib; first compound 0.253 µM
  relative viability: 0.621
Ricolinostat + Dasatinib; first compound 0.8 µM
  relative viability: 0.583
Ricolinostat + Dasatinib; first compound 2.53 µM
  relative viability: 0.471
TGX 221 + Crizotinib; first compound 0.08 µM
  relative viability: 0.958
TGX 221 + Crizotinib; first compound 0.253 µM
  relative viability: 0.924
TGX 221 + Crizotinib; first compound 0.8 µM
  relative viability: 0.879
TGX 221 + Crizotinib; first compound 2.53 µM
  relative viability: 0.776
TGX 221 + Crizotinib; first compound 8 µM
  relative viability: 0.824

## ABC-1
TGX 221 + Lapatinib; first compound 0.08 µM
  relative viability: 0.987
TGX 221 + Lapatinib; first compound 0.253 µM
  relative viability: 1.14
TGX 221 + Lapatinib; first compound 0.8 µM
  relative viability: 1.12
TGX 221 + Lapatinib; first compound 2.53 µM
  relative viability: 1.24
TGX 221 + Lapatinib; first compound 8 µM
  relative viability: 1.09
Ricolinostat + Dasatinib; first compound 0.08 µM
  relative viability: 0.556
Ricolinostat + Dasatinib; first compound 0.253 µM
  relative viability: 0.632
Ricolinostat + Dasatinib; first compound 0.8 µM
  relative viability: 0.563
Ricolinostat + Dasatinib; first compound 2.53 µM
  relative viability: 0.489
TGX 221 + Crizotinib; first compound 0.08 µM
  relative viability: 0.946
TGX 221 + Crizotinib; first compound 0.253 µM
  relative viability: 0.809
TGX 221 + Crizotinib; first compound 0.8 µM
  relative viability: 1.25
TGX 221 + Crizotinib; first compound 2.53 µM
  relative viability: 1.01
TGX 221 + Crizotinib; first compound 8 µM
  relative viability: 1.26

## BEN
TGX 221 + Lapatinib; first compound 0.08 µM
  relative viability: 0.721
TGX 221 + Lapatinib; first compound 0.253 µM
  relative viability: 0.719
TGX 221 + Lapatinib; first compound 0.8 µM
  relative viability: 0.506
TGX 221 + Lapatinib; first compound 2.53 µM
  relative viability: 0.68
TGX 221 + Lapatinib; first compound 8 µM
  relative viability: 0.605
Ricolinostat + Dasatinib; first compound 0.08 µM
  relative viability: 0.269
Ricolinostat + Dasatinib; first compound 0.253 µM
  relative viability: 0.322
Ricolinostat + Dasatinib; first compound 0.8 µM
  relative viability: 0.279
Ricolinostat + Dasatinib; first compound 2.53 µM
  relative viability: 0.213
TGX 221 + Crizotinib; first compound 0.08 µM
  relative viability: 0.931
TGX 221 + Crizotinib; first compound 0.253 µM
  relative viability: 0.641
TGX 221 + Crizotinib; first compound 0.8 µM
  relative viability: 0.821
TGX 221 + Crizotinib; first compound 2.53 µM
  relative viability: 0.795
TGX 221 + Crizotinib; first compound 8 µM
  relative viability: 0.721

## CAL-12T
TGX 221 + Lapatinib; first compound 0.253 µM
  relative viability: 0.533
TGX 221 + Lapatinib; first compound 0.8 µM
  relative viability: 0.576
TGX 221 + Lapatinib; first compound 8 µM
  relative viability: 0.621
Ricolinostat + Dasatinib; first compound 0.08 µM
  relative viability: 0.422
Ricolinostat + Dasatinib; first compound 0.253 µM
  relative viability: 0.417
Ricolinostat + Dasatinib; first compound 0.8 µM
  relative viability: 0.48
Ricolinostat + Dasatinib; first compound 2.53 µM
  relative viability: 0.664
TGX 221 + Crizotinib; first compound 0.08 µM
  relative viability: 0.53
TGX 221 + Crizotinib; first compound 0.253 µM
  relative viability: 0.673
TGX 221 + Crizotinib; first compound 0.8 µM
  relative viability: 0.72
TGX 221 + Crizotinib; first compound 2.53 µM
  relative viability: 0.689
TGX 221 + Crizotinib; first compound 8 µM
  relative viability: 0.595

## COR-L23
TGX 221 + Lapatinib; first compound 0.08 µM
  relative viability: 0.886
TGX 221 + Lapatinib; first compound 0.253 µM
  relative viability: 0.923
TGX 221 + Lapatinib; first compound 0.8 µM
  relative viability: 1.02
TGX 221 + Lapatinib; first compound 2.53 µM
  relative viability: 1.11
TGX 221 + Lapatinib; first compound 8 µM
  relative viability: 0.938
Ricolinostat + Dasatinib; first compound 0.08 µM
  relative viability: 0.373
Ricolinostat + Dasatinib; first compound 0.253 µM
  relative viability: 0.477
Ricolinostat + Dasatinib; first compound 0.8 µM
  relative viability: 0.471
Ricolinostat + Dasatinib; first compound 2.53 µM
  relative viability: 0.242
TGX 221 + Crizotinib; first compound 0.08 µM
  relative viability: 0.597
TGX 221 + Crizotinib; first compound 0.253 µM
  relative viability: 0.523
TGX 221 + Crizotinib; first compound 0.8 µM
  relative viability: 0.727
TGX 221 + Crizotinib; first compound 2.53 µM
  relative viability: 0.597
TGX 221 + Crizotinib; first compound 8 µM
  relative viability: 0.619

## COR-L 105
TGX 221 + Lapatinib; first compound 0.08 µM
  relative viability: 0.409
TGX 221 + Lapatinib; first compound 0.253 µM
  relative viability: 0.333
TGX 221 + Lapatinib; first compound 0.8 µM
  relative viability: 0.394
TGX 221 + Lapatinib; first compound 2.53 µM
  relative viability: 0.394
TGX 221 + Lapatinib; first compound 8 µM
  relative viability: 0.325
Ricolinostat + Dasatinib; first compound 0.253 µM
  relative viability: 0.368
Ricolinostat + Dasatinib; first compound 0.8 µM
  relative viability: 0.397
Ricolinostat + Dasatinib; first compound 2.53 µM
  relative viability: 0.401
TGX 221 + Crizotinib; first compound 0.08 µM
  relative viability: 0.883
TGX 221 + Crizotinib; first compound 0.253 µM
  relative viability: 0.748
TGX 221 + Crizotinib; first compound 0.8 µM
  relative viability: 0.967
TGX 221 + Crizotinib; first compound 2.53 µM
  relative viability: 0.728
TGX 221 + Crizotinib; first compound 8 µM
  relative viability: 0.519

## Calu-6
TGX 221 + Lapatinib; first compound 0.08 µM
  relative viability: 0.929
TGX 221 + Lapatinib; first compound 0.253 µM
  relative viability: 0.916
TGX 221 + Lapatinib; first compound 0.8 µM
  relative viability: 1.04
TGX 221 + Lapatinib; first compound 2.53 µM
  relative viability: 1.17
TGX 221 + Lapatinib; first compound 8 µM
  relative viability: 0.962
TGX 221 + Crizotinib; first compound 0.08 µM
  relative viability: 0.718
TGX 221 + Crizotinib; first compound 0.253 µM
  relative viability: 0.698
TGX 221 + Crizotinib; first compound 0.8 µM
  relative viability: 0.806
TGX 221 + Crizotinib; first compound 2.53 µM
  relative viability: 0.768
TGX 221 + Crizotinib; first compound 8 µM
  relative viability: 0.693

## ChaGo-K-1
Ricolinostat + Dasatinib; first compound 0.08 µM
  relative viability: 0.579
Ricolinostat + Dasatinib; first compound 0.253 µM
  relative viability: 0.49
Ricolinostat + Dasatinib; first compound 0.8 µM
  relative viability: 0.584
Ricolinostat + Dasatinib; first compound 2.53 µM
  relative viability: 0.532
TGX 221 + Crizotinib; first compound 0.08 µM
  relative viability: 1.1
TGX 221 + Crizotinib; first compound 0.253 µM
  relative viability: 1.01
TGX 221 + Crizotinib; first compound 0.8 µM
  relative viability: 1.18
TGX 221 + Crizotinib; first compound 2.53 µM
  relative viability: 1.11
TGX 221 + Crizotinib; first compound 8 µM
  relative viability: 0.989

## EBC-1
TGX 221 + Lapatinib; first compound 0.08 µM
  relative viability: 0.203
TGX 221 + Lapatinib; first compound 0.253 µM
  relative viability: 0.212
TGX 221 + Lapatinib; first compound 0.8 µM
  relative viability: 0.203
TGX 221 + Lapatinib; first compound 2.53 µM
  relative viability: 0.226
TGX 221 + Lapatinib; first compound 8 µM
  relative viability: 0.234
TGX 221 + Crizotinib; first compound 0.08 µM
  relative viability: 0.203
TGX 221 + Crizotinib; first compound 0.253 µM
  relative viability: 0.183
TGX 221 + Crizotinib; first compound 0.8 µM
  relative viability: 0.211
TGX 221 + Crizotinib; first compound 2.53 µM
  relative viability: 0.178
TGX 221 + Crizotinib; first compound 8 µM
  relative viability: 0.183

## EKVX
TGX 221 + Lapatinib; first compound 0.08 µM
  relative viability: 0.231
TGX 221 + Lapatinib; first compound 0.253 µM
  relative viability: 0.194
TGX 221 + Lapatinib; first compound 0.8 µM
  relative viability: 0.213
TGX 221 + Lapatinib; first compound 2.53 µM
  relative viability: 0.182
TGX 221 + Lapatinib; first compound 8 µM
  relative viability: 0.19
Ricolinostat + Dasatinib; first compound 0.08 µM
  relative viability: 0.471
Ricolinostat + Dasatinib; first compound 0.253 µM
  relative viability: 0.658
Ricolinostat + Dasatinib; first compound 0.8 µM
  relative viability: 0.577
Ricolinostat + Dasatinib; first compound 2.53 µM
  relative viability: 0.606
TGX 221 + Crizotinib; first compound 0.08 µM
  relative viability: 0.85
TGX 221 + Crizotinib; first compound 0.253 µM
  relative viability: 0.832
TGX 221 + Crizotinib; first compound 0.8 µM
  relative viability: 0.843
TGX 221 + Crizotinib; first compound 2.53 µM
  relative viability: 0.927
TGX 221 + Crizotinib; first compound 8 µM
  relative viability: 0.773

## EMC-BAC-2
TGX 221 + Lapatinib; first compound 0.08 µM
  relative viability: 0.841
TGX 221 + Lapatinib; first compound 0.253 µM
  relative viability: 0.83
TGX 221 + Lapatinib; first compound 0.8 µM
  relative viability: 0.894
TGX 221 + Lapatinib; first compound 2.53 µM
  relative viability: 0.903
TGX 221 + Lapatinib; first compound 8 µM
  relative viability: 0.874
Ricolinostat + Dasatinib; first compound 0.08 µM
  relative viability: 0.316
Ricolinostat + Dasatinib; first compound 0.253 µM
  relative viability: 0.291
Ricolinostat + Dasatinib; first compound 0.8 µM
  relative viability: 0.27
Ricolinostat + Dasatinib; first compound 2.53 µM
  relative viability: 0.242
TGX 221 + Crizotinib; first compound 0.08 µM
  relative viability: 0.745
TGX 221 + Crizotinib; first compound 0.253 µM
  relative viability: 0.706
TGX 221 + Crizotinib; first compound 0.8 µM
  relative viability: 0.746
TGX 221 + Crizotinib; first compound 2.53 µM
  relative viability: 0.743
TGX 221 + Crizotinib; first compound 8 µM
  relative viability: 0.569
